Values of other authors, collected in US20080114066A1, “Synergistic Effects Of Docosahexaenoic Acid (DHA) And Carotenoid Absorption Of Cognitive Function” (Trustees of Tufts College, priority 2005, published 2008).

Settings: background statement; cited from earlier work

For CC1=C[C@H](O)CC(C)(C)[C@H]1/C=C/C(C)=C/C=C/C(C)=C/C=C/C=C(C)/C=C/C=C(C)/C=C/C1=C(C)C[C@@H](O)CC1(C)C [Lutein, lutein], the “Share transported in blood on HDL” value is listed as “about 53%”, the “Share transported in blood on LDL” value is listed as “about 31%” and the “Share transported in blood on VLDL” value is listed as “about 16%”.
